In brackets after ≈: the same amount, converted by molar mass. Activity calls are given as the source filed them. The rule behind the calls is not given here.
Legend:
[1] = target: T1, 5-hydroxytryptamine receptor 2B (Homo sapiens, UniProt P41595); experiment: Antagonist activity at 5-HT2B receptor expressed in CHOK1 cells assessed as inhibition of serotonin-induced intracellular Ca2+ flux by aequorin luminescence assay in presence of 4% human serum albumin; format: functional, cell-based, CHO-K1
[2] = target: T1, 5-hydroxytryptamine receptor 2B; experiment: Antagonist activity at 5-HT2B receptor expressed in CHOK1 cells assessed as inhibition of serotonin-induced intracellular Ca2+ flux by aequorin luminescence assay; format: functional, cell-based, CHO-K1
[3] = Protein binding in plasma by dialysis method; format: ADME, cell-free; conditions: read-out: PPB (converted)
[4] = Selectivity for 5-HT2B receptor over 5-HT2C receptor
[5] = target: 5-hydroxytryptamine receptor 2A (Homo sapiens) (UniProt P28223); experiment: Antagonist activity at 5-HT2A receptor up to 10 uM by FLIPR assay; format: functional
[6] = target: T2, 5-hydroxytryptamine receptor 2C (Homo sapiens) (UniProt P28335); experiment: Antagonist activity at 5-HT2C receptor up to 10 uM by FLIPR assay; format: functional
T2 sequence (whole entry): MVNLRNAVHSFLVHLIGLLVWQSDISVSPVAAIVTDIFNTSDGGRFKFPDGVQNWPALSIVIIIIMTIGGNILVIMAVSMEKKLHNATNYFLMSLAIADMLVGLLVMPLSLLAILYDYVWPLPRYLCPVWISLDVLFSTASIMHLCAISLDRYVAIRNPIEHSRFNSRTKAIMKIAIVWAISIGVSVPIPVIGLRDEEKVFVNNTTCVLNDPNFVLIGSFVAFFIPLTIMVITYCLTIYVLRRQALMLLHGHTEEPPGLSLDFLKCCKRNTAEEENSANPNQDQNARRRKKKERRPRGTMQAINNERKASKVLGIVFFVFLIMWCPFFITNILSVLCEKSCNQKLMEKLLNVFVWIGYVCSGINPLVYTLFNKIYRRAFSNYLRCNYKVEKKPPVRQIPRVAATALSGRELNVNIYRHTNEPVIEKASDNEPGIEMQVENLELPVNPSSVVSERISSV

[7] = AUC in Sprague-Dawley rat at 10 mg/kg, po; format: ADME, organism-based; parameters: dose 10 mg/kg, route oral; conditions: plasma
[8] = Selectivity for 5-HT2B receptor over 5-HT2A receptor
[9] = Aqueous solubility of compound at pH 7.4; format: physicochemical; conditions: aqueous medium
[10] = Oral bioavailability in Sprague-Dawley rat; format: ADME, organism-based; conditions: in vivo
[11] = Cmax in Sprague-Dawley rat 10 mg/kg, po; format: ADME, organism-based; parameters: dose 10 mg/kg, route oral; conditions: in vivo
[12] = Inhibition of dopamine D4.2 receptor at 10 uM
[13] = AUC in Wistar rat at 10 mg/kg, po; format: ADME, organism-based; parameters: dose 10 mg/kg, route oral; conditions: plasma
[14] = Cmax in Wistar rat 10 mg/kg, po; format: ADME, organism-based; parameters: dose 10 mg/kg, route oral; conditions: in vivo
Rattus norvegicus = experiment: Hepatic blood flow in Wistar rat at 1 mg/kg, iv; format: ADME, organism-based, Liver; parameters: dose 1 mg/kg, route intravenous; conditions: in vivo
[15] = Oral bioavailability in Wistar rat; format: ADME, organism-based; conditions: in vivo

T1 sequence (P41595 whole entry): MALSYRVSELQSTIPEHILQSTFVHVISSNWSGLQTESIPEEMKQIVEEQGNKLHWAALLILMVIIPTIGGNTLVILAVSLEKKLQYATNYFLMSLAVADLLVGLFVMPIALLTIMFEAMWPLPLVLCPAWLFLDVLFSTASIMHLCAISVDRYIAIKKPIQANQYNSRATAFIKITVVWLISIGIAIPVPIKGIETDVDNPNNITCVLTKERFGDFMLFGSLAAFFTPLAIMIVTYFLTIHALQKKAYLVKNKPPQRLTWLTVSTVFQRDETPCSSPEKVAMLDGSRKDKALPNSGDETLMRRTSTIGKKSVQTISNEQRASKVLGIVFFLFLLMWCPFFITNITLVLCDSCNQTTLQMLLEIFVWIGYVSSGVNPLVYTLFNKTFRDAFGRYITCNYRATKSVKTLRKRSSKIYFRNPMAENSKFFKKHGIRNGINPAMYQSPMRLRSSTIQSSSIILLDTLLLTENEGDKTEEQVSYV
Sequence of 5-hydroxytryptamine receptor 2A (Homo sapiens) (P28223 whole entry): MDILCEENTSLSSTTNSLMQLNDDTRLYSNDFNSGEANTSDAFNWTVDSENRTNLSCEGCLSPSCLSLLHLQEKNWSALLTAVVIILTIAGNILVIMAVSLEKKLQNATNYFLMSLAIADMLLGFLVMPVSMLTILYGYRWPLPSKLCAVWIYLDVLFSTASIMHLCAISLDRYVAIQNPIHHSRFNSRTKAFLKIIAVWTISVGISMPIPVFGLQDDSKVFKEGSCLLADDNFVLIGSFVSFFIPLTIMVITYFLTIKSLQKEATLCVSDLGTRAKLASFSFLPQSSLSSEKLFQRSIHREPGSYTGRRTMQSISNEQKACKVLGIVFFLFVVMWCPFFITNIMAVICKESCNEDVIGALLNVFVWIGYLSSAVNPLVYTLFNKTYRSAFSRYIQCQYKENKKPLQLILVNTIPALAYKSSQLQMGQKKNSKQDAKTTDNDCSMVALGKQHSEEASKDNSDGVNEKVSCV

Structure (SMILES) | IC50 [1] | IC50 [2] | further results
O=C(C1CCC(c2ccccc2)CC1)N1CCC(c2nc3ccccc3[nH]2)CC1 (centres undefined) | > 20000 nM | 610 nM | –
O=C(c1ccc(N2CCOCC2)cc1)N1CCC(c2nc3ccccc3[nH]2)CC1 | > 26000 nM | 2300 nM | –
O=C(c1ccc(-c2ccccc2)cc1)N1CCN(c2nc3ccccc3[nH]2)CC1 | > 25000 nM | 6900 nM | –
Cn1c(C2CCN(C(=O)c3ccc(-c4ccccc4)cc3)CC2)nc2ccccc21 | 10000 nM | 80 nM | –
O=C(c1ccc(C2CCCCC2)cc1)N1CCC(c2nc3ccccc3[nH]2)CC1 | 1100 nM | 31 nM | –
NC(=O)c1ccc(-c2ccc(C(=O)N3CCC(c4nc5ccccc5[nH]4)CC3)cc2)cc1 | > 24000 nM | > 2400 nM | –
O=C(c1ccc(-c2ccccc2)cc1)N1CCC(c2ncc[nH]2)CC1 | – | – | fraction unbound [3]: 0.001
O=C(c1ccc(-c2ncccn2)cc1)N1CCC(c2nc3ccccc3[nH]2)CC1 | > 2700 nM | 120 nM | –
O=C(c1ccc(-c2ccc(F)cc2)cc1)N1CCC(c2ncc[nH]2)CC1 | – | – | AUC [7]: 14000 ng·h/mL; bioavailability [10]: 100%; Cmax [11]: 1700 ng/mL
O=C(c1ccc(-c2ccccc2)cc1)N1CCC(Cc2ncc[nH]2)CC1 | 14 nM | 0.4 nM | –
Cc1cc2c(cc1Cl)N(C(=O)Nc1cccc3ncccc13)CC2 | 64 nM | 13 nM | Selectivity ratio [4]: 0.5; Selectivity ratio [8]: 7
O=C(c1ccccc1)N1CCC(c2nc3ccccc3[nH]2)CC1 | > 10000 nM | > 10000 nM | –
O=C(c1ccc(N2CCCCC2)cc1)N1CCC(c2nc3ccccc3[nH]2)CC1 | 12000 nM | 48 nM | –
O=S(=O)(c1ccc(-c2ccccc2)cc1)N1CCC(c2ncc[nH]2)CC1 | 32 nM | 0.3 nM | –
CC(C)c1cc(-c2ccc(F)c3ccccc23)nc(N)n1 | 19 nM | 0.7 nM | Selectivity ratio [4]: 92; Selectivity ratio [8]: 2000; AUC [13]: 810 ng·h/mL; Cmax [14]: 470 ng/mL; QH (Rattus norvegicus): 29%; bioavailability [15]: 10%; fraction unbound [3]: 0.001
O=C(c1cnc(-c2ccccc2)nc1)N1CCC(c2nc3ccccc3[nH]2)CC1 | 710 nM | 2.5 nM | fraction unbound [3]: 0.009
O=S(=O)(c1ccc(-c2ccccc2)cc1)N1CCC(Cc2ncc[nH]2)CC1 | 990 nM | 6.5 nM | –
NC(=O)C1CCN(C(=O)c2ccc(-c3ccccc3)cc2)CC1 | – | > 6500 nM | –
O=C(c1ccc(-c2ccc(OC(F)(F)F)cc2)cc1)N1CCC(c2nc3ccccc3[nH]2)CC1 | 16000 nM | 95 nM | –
O=C(c1ccc(-c2ccc(F)cc2)cc1)N1CCC(Cc2ncc[nH]2)CC1 | – | – | AUC [7]: 6500 ng·h/mL; bioavailability [10]: 118%; Cmax [11]: 600 ng/mL
O=S(=O)(c1ccc(-c2ccc(F)cc2)cc1)N1CCC(c2ncc[nH]2)CC1 | 30 nM | 0.6 nM | AUC [7]: 2300 ng·h/mL; bioavailability [10]: 54%; Cmax [11]: 870 ng/mL
O=C(c1ccc(Br)cc1)N1CCC(c2nc3ccccc3[nH]2)CC1 | > 26000 nM | > 13000 nM | –
CCOc1nc(-c2ccccc2)ncc1C(=O)N1CCC(c2nc3ccccc3[nH]2)CC1 | 910 nM | 6 nM | –
N#Cc1cc(CN2CCC(Nc3ncnc4sc(Cl)cc34)CC2)ccc1F [PRX-08066 FREE BASE] | 270 nM | 3.5 nM | Selectivity ratio [4]: > 3000; Selectivity ratio [8]: > 3000; AUC [13]: 500 ng·h/mL; Cmax [14]: 240 ng/mL; QH (Rattus norvegicus): 82%; bioavailability [15]: 17%; fraction unbound [3]: 0.01

More lines, main results first:

IC50 [1] | IC50 [2] | Structure (SMILES) | further results
> 14000 nM | 340 nM | O=C(c1ccc(-c2cccnc2)cc1)N1CCC(c2nc3ccccc3[nH]2)CC1 | –
> 20000 nM | 1500 nM | O=C(c1ccc(-c2ccccc2)cc1)N1CCC(c2nc3ccccc3o2)CC1 | –
1200 nM | 2.4 nM | O=C(c1ccc(-c2ccccc2)cc1)N1CCC(c2nc3ccccc3[nH]2)CC1 | Selectivity ratio [4]: > 10000; Activity [5]: inactive; Activity [6]: inactive; AUC [7]: 25000 ng·h/mL; Selectivity ratio [8]: > 10000; solubility [9]: 3 µg/mL (≈ 7.86 µM); bioavailability [10]: 130%; Cmax [11]: 5000 ng/mL; inhibition [12]: 99%; fraction unbound [3]: 0.001
> 3000 nM | 22 nM | O=C(c1ccc(-c2ccccc2)[nH]c1=O)N1CCC(c2nc3ccccc3[nH]2)CC1 | –
300 nM | 2.3 nM | O=C(c1ccc(-c2ccccc2)cc1)N1CCC(Cc2nc3ccccc3[nH]2)CC1 | –
7300 nM | 65 nM | c1ccc(-c2ccc(CN3CCC(c4nc5ccccc5[nH]4)CC3)cc2)cc1 | –
> 2400 nM | 12 nM | O=C(c1ccc(-c2ccccc2)cn1)N1CCC(c2nc3ccccc3[nH]2)CC1 | –
1200 nM | 4 nM | COc1cc(-c2ccccc2)ccc1C(=O)N1CCC(c2nc3ccccc3[nH]2)CC1 | –
> 2800 nM | 150 nM | O=C(c1ccc(-c2ccccc2)cc1)N1CC(c2nc3ccccc3[nH]2)C1 | –
3200 nM | 3.4 nM | COc1ccc(-c2ccc(C(=O)N3CCC(c4nc5ccccc5[nH]4)CC3)cc2)cc1 | –
840 nM | 1.9 nM | O=S(=O)(c1ccc(-c2ccccc2)cc1)N1CCC(c2nc3ccccc3[nH]2)CC1 | –
> 23000 nM | 1100 nM | O=S(=O)(c1ccc(-c2ccccc2)cc1)N1CCC(Cc2nc3ccccc3[nH]2)CC1 | –
> 13000 nM | > 1300 nM | O=C(c1ccc(-c2ccncc2)cc1)N1CCC(c2nc3ccccc3[nH]2)CC1 | –

— ChEMBL document CHEMBL1138587, “A new class of 5-HT2B antagonists possesses favorable potency, selectivity, and rat pharmacokinetic properties” (Bioorg Med Chem Lett, 2009)
